Data as given in BindingDB's records for doi:10.1016/j.bmcl.2009.07.043 (Wyeth Research, 2009).
pIC50: −log10 of the molar value.

Test: Inhibition of human Src expressed in rat fibroblasts assessed as anchorage independent growth after 3 days

pIC50: < 5.00
SMILES: COc1cc(Nc2c(C#N)cnc3cc(-c4ncccc4CN4CCOCC4)ccc23)c(Cl)cc1Cl [4-(2,4-dichloro-5-methoxyphenylamino)-7-(3-(morpholinomethyl)pyridin-2-yl)quinoline-3-carbonitrile]
